Assay results: paper PMC7560342, “In Vitro and In Vivo Evaluation of the Toxic Effects of Dodecylguanidine Hydrochloride” (Toxics, 2020)
In brackets after ≈: the same amount, converted by molar mass.

What was measured:
[1] = system: A549 cells; test: cells; format: cell-based, Human; conditions: 24 h exposure, WST assay; for IC50: Homo sapiens, read-out: IC50 (half inhibitory concentration by cell viability assay)
Description: Human adenocarcinomic alveolar epithelial (A549) cells were obtained from the Korea Cell Line Bank (Seoul, Korea). Cells were grown in RPMI 1640 medium (Thermo Fisher Scientific, Waltham, MA, USA), containing 10% heat-inactivated fetal bovine serum (Thermo Fisher Scientific, Waltham, MA, USA) and 1% penicillin-streptomycin (Thermo Fisher Scientific, Waltham, MA, USA) under standard cell culture conditions (37 °C, 5% CO2, and 90% humidity).
A549 cells (1 × 10^4 cells) were incubated in 96-well plates overnight, and various concentrations (1, 10, 100, 1000, and 5000 μg/mL) of the eight selected chemicals were added to the cell culture medium. After 24 h of incubation, cell morphology was observed by optical microscopy, and cell viability was evaluated using EZ-Cytox kit (DoGenBio, Seoul, Korea) by quantifying purple formazan crystals. The membrane integrity was examined using an EZ-lactate dehydrogenase (LDH) kit (DoGenBio, Seoul, Korea) to measure the LDH level released from the cytosol into the culture medium. Absorbance was measured using a microplate reader (Tecan, Salzburg, Austria) at a wavelength of 450 nm.

[2] = system: rabbit; set-up: method as in earlier work; conditions: cited from earlier work
[3] = system: rat; set-up: method as in earlier work; conditions: 1 h; cited from earlier work
[4] = system: rat; set-up: method as in earlier work; conditions: cited from earlier work

N#CNC(=N)N [CG, Cyanoguanidine]
IC50 [1]: > 5000 µg/mL

N=C(N)N.N=C(N)N.O=C(O)O [GC, Guanidine carbonate]
IC50 (half inhibitory concentration by cell viability assay) [1]: 1822 µg/mL

Cl.N=C(N)N [GH, Guanidine monohydrochloride]
IC50 (half inhibitory concentration by cell viability assay) [1]: 2373 µg/mL

N=C(N)N.O=[N+]([O-])O [GN, Guanidine mononitrate]
IC50 (half inhibitory concentration by cell viability assay) [1]: 3417 µg/mL

N=C(N)N.NS(=O)(=O)O [GS, Guanidine sulfamate]
IC50 (half inhibitory concentration by cell viability assay) [1]: 2722 µg/mL

CN(C)C(=N)N(C)C [TMG, 1,1,3,3-Tetramethylguanidine]
IC50 [1]: 1090 µg/mL (≈ 9.47 mM)

CCCCCCCCCCCCNC(=N)N [dodine, dodecylguanidine acetate]
Dermal toxicity LD50 [2]: > 2000 mg/kg | Inhalation toxicity LC50 [3]: 1.05 µg/mL | Acute oral toxicity LD50 [4]: 1931 mg/kg
